How the values were obtained:
Experiment in all cases: Etest MIC of indicator carbapenems on MH II agar without/with PMBN
Type in all cases: cell-based
[1] = test system: E. aerogenes 1204050 (membrane impermeability); conditions: in µg/mL
Description: (§1) The determinations of antibiotic MIC were carried out on solid culture media with the Etest® method. To do this, Etest® strips (bioMérieux, France) were used: • Etest® Imipenem IM 32, and • Etest® Ertapenem ETP 32, and also solid culture media, differing from one another by virtue of their non-inhibitory concentrations of PMBN.
(§2) These solid culture media are prepared in Petri dishes (0=145 mm; V=50 ml) on a base of MH II Agar (Becton Dickinson®, United States), more or less supplemented with PMBN. The PMBN concentrations range from 0 up to concentrations equivalent to one fifth of the MIC of PMBN (⅕ MICPMBN).
(§3) Using a swab and the Retro C80™ rota-plater (bioMérieux, France), the culture media were inoculated with the bacteria, originating from an inoculum of 0.5 McFarland, prepared in 0.85% NaCl solution from colonies subcultured the day before on MH II agar.
(§4) The various Etest® strips are then deposited on the surface of the culture media. After 16 to 20 hours of incubation at 35° C., the MICS were read.
(§5) By way of indicator carbapenems according to the invention, in addition to imipenem (IM) and ertapenem (ETP), meropenem (MP) was also tested. Like the other two antibiotics, meropenem was used in the form of Etest® strips (Etest® Meropenem MP 32 from the company bioMérieux, France).
(§6) The methods used to prepare the new culture media and to carry out the antibiotic-sensitivity tests are identical to those described above.

[2] = test system: E. cloacae 1008080 (IMP producer); conditions: in µg/mL
Description: as §1, §2, §3, §4, §5, §6

[3] = test system: E. cloacae 1109137 (OXA-48 producer)
Description: as §1, §2, §3, §4, §5, §6

[4] = test system: E. cloacae 1204051 (membrane impermeability)
Description: as §1, §2, §3, §4, §5, §6

[5] = test system: E. cloacae 1204052 (membrane impermeability)
Description: as §1, §2, §3, §4, §5, §6

[6] = test system: E. cloacae 1204053 (membrane impermeability)
Description: as §1, §2, §3, §4, §5, §6

[7] = test system: E. cloacae 1204056 (membrane impermeability)
Description: as §1, §2, §3, §4, §5, §6

[8] = test system: E. cloacae 1204058 (membrane impermeability); conditions: in µg/mL
Description: as §1, §2, §3, §4, §5, §6

[9] = test system: E. cloacae 1204153 (membrane impermeability); conditions: in µg/mL
Description: as §1, §2, §3, §4, §5, §6

[10] = test system: E. coli 1008078 (VIM producer)
Description: as §1, §2, §3, §4, §5, §6

E. coli SAB 100 (porin−) = conditions: Escherichia coli
Description: as §1, §2, §3, §4, §5, §6

E. coli SAB 108 (porin−) = conditions: Escherichia coli
Description: as §1, §2, §3, §4, §5, §6

[11] = test system: K. pneumoniae 1012142 (KPC-2 producer)
Description: as §1, §2, §3, §4, §5, §6

[12] = test system: K. pneumoniae 1103183 (NDM producer)
Description: as §1, §2, §3, §4, §5, §6

[13] = test system: K. pneumoniae 1204035 (membrane impermeability); conditions: in µg/mL
Description: as §1, §2, §3, §4, §5, §6

[14] = test system: K. pneumoniae 1204036 (membrane impermeability)
Description: as §1, §2, §3, §4, §5, §6

[15] = test system: K. pneumoniae 1204039 (membrane impermeability)
Description: as §1, §2, §3, §4, §5, §6

[16] = test system: K. pneumoniae KP 55 (porin−); conditions: Klebsiella pneumoniae
Description: as §1, §2, §3, §4, §5, §6

[17] = test system: K. pneumoniae KP 63 (porin−); conditions: Klebsiella pneumoniae
Description: as §1, §2, §3, §4, §5, §6

In the case of `C[C@@H](O)[C@H]1C(=O)N2C(C(=O)O)=C(S[C@@H]3CN[C@H](C(=O)N(C)C)C3)[C@H](C)[C@H]12` [MP, meropenem], the MIC ([1]; [PMBN] 0, Table 4a) is reported as greater than 32, the MIC ([1]; [PMBN] 100, Table 4a) is reported as 2-4 and the MIC ([1]; [PMBN] 200, Table 4a) is reported as 1.5-2. It also gave an MIC ([1]; [PMBN] 300, Table 4a) of 1, an MIC ([2]; [PMBN] 0, Table 4a) of 2 and an MIC ([2]; [PMBN] 100, Table 4a) of 8. For the same compound, the MIC ([2]; [PMBN] 200, Table 4a) was 6, the MIC ([2]; [PMBN] 300, Table 4a) was 4-6 and the MIC ([3]; [PMBN] 0, Table 4a) was 3 µg/mL. It also gave an MIC ([3]; [PMBN] 100, Table 4a) of 3 µg/mL, an MIC ([3]; [PMBN] 200, Table 4a) of 1.5 µg/mL and an MIC ([3]; [PMBN] 300, Table 4a) of 2 µg/mL. For the same compound, the MIC ([4]; [PMBN] 0, Table 4a) was 4 µg/mL, the MIC ([4]; [PMBN] 100, Table 4a) was 2 µg/mL and the MIC ([4]; [PMBN] 200, Table 4a) was 0.25 µg/mL. The MIC ([4]; [PMBN] 300, Table 4a) was 0.25 µg/mL, the MIC ([5]; [PMBN] 0, Table 4a) was 6 µg/mL and the MIC ([5]; [PMBN] 100, Table 4a) was 0.75 µg/mL. It also gave an MIC ([5]; [PMBN] 200, Table 4a) of 1.5 µg/mL, an MIC ([5]; [PMBN] 300, Table 4a) of 0.5 µg/mL and an MIC ([6]; [PMBN] 0, Table 4a) of 4 µg/mL. It also gave an MIC ([6]; [PMBN] 100, Table 4a) of 2 µg/mL, an MIC ([6]; [PMBN] 200, Table 4a) of 2 µg/mL and an MIC ([6]; [PMBN] 300, Table 4a) of 1.5 µg/mL. It also gave an MIC ([7]; [PMBN] 0, Table 4a) of 12 µg/mL, an MIC ([7]; [PMBN] 100, Table 4a) of 2 µg/mL and an MIC ([7]; [PMBN] 200, Table 4a) of 1 µg/mL. For the same compound, the MIC ([7]; [PMBN] 300, Table 4a) was 0.75 µg/mL, the MIC ([8]; [PMBN] 0, Table 4a) was greater than 32 and the MIC ([8]; [PMBN] 100, Table 4a) was 2. It also gave an MIC ([8]; [PMBN] 200, Table 4a) of 0.75, an MIC ([8]; [PMBN] 300, Table 4a) of 0.25 and an MIC ([9]; [PMBN] 0, Table 4a) of 4. For the same compound, the MIC ([9]; [PMBN] 100, Table 4a) was 0.75-1, the MIC ([9]; [PMBN] 200, Table 4a) was 1 and the MIC ([9]; [PMBN] 300, Table 4a) was 0.75. For the same compound, the MIC ([10]; [PMBN] 0, Table 4a) was 0.5 µg/mL, the MIC ([10]; [PMBN] 100, Table 4a) was 0.5 µg/mL and the MIC ([10]; [PMBN] 200, Table 4a) was 0.25 µg/mL. It also gave an MIC ([10]; [PMBN] 300, Table 4a) of 0.25 µg/mL, an MIC (E. coli SAB 100 (porin−); [PMBN] 0) of 0.125 µg/mL and an MIC (E. coli SAB 100 (porin−); [PMBN] 50 μg/ml) of 0.094 µg/mL. It also gave an MIC (E. coli SAB 100 (porin−); [PMBN] 100 μg/ml) of 0.047 µg/mL, an MIC (E. coli SAB 100 (porin−); [PMBN] 150 μg/ml) of 0.032 µg/mL and an MIC (E. coli SAB 100 (porin−); [PMBN] 200 μg/ml) of 0.032 µg/mL. The MIC (E. coli SAB 108 (porin−); [PMBN] 0) was 2 µg/mL, the MIC (E. coli SAB 108 (porin−); [PMBN] 50 μg/ml) was 0.125 µg/mL and the MIC (E. coli SAB 108 (porin−); [PMBN] 100 μg/ml) was 0.125 µg/mL. It also gave an MIC (E. coli SAB 108 (porin−); [PMBN] 150 μg/ml) of 0.094 µg/mL, an MIC (E. coli SAB 108 (porin−); [PMBN] 200 μg/ml) of 0.094 µg/mL and an MIC ([11]; [PMBN] 0, Table 4a) greater than 32 µg/mL. It also gave an MIC ([11]; [PMBN] 100, Table 4a) greater than 32 µg/mL, an MIC ([11]; [PMBN] 200, Table 4a) greater than 32 µg/mL and an MIC ([11]; [PMBN] 300, Table 4a) greater than 32 µg/mL. The MIC ([12]; [PMBN] 0, Table 4a) was greater than 32 µg/mL, the MIC ([12]; [PMBN] 100, Table 4a) was greater than 32 µg/mL and the MIC ([12]; [PMBN] 200, Table 4a) was 24 µg/mL. For the same compound, the MIC ([12]; [PMBN] 300, Table 4a) was greater than 32 µg/mL, the MIC ([13]; [PMBN] 0, Table 4a) was 8-12 and the MIC ([13]; [PMBN] 100, Table 4a) was 2. It also gave an MIC ([13]; [PMBN] 200, Table 4a) of 1.5, an MIC ([13]; [PMBN] 300, Table 4a) of 1.5 and an MIC ([14]; [PMBN] 0, Table 4a) of 32 µg/mL. It also gave an MIC ([14]; [PMBN] 100, Table 4a) of 16 µg/mL, an MIC ([14]; [PMBN] 200, Table 4a) of 6 µg/mL and an MIC ([14]; [PMBN] 300, Table 4a) of 4 µg/mL. For the same compound, the MIC ([15]; [PMBN] 0, Table 4a) was 0.75 µg/mL, the MIC ([15]; [PMBN] 100, Table 4a) was 0.5 µg/mL and the MIC ([15]; [PMBN] 200, Table 4a) was 0.38 µg/mL. For the same compound, the MIC ([15]; [PMBN] 300, Table 4a) was 0.38 µg/mL, the MIC ([16]; [PMBN] 0) was 0.19 µg/mL and the MIC ([16]; [PMBN] 50 μg/ml) was 0.125 µg/mL. For the same compound, the MIC ([16]; [PMBN] 100 μg/ml) was 0.064 µg/mL, the MIC ([16]; [PMBN] 150 μg/ml) was 0.064 µg/mL and the MIC ([16]; [PMBN] 200 μg/ml) was 0.047 µg/mL. The MIC ([17]; [PMBN] 0) was 0.25 µg/mL, the MIC ([17]; [PMBN] 50 μg/ml) was 0.25 µg/mL and the MIC ([17]; [PMBN] 100 μg/ml) was 0.094 µg/mL. It also gave an MIC ([17]; [PMBN] 150 μg/ml) of 0.064 µg/mL and an MIC ([17]; [PMBN] 200 μg/ml) of 0.023 µg/mL.
